In article PMC9241057, “Ru(II)arene(N^N bpy/phen)-based RAPTA complexes for in vitro anti-tumour activity in human glioblastoma cancer cell lines and in vivo toxicity studies in a zebrafish model” (RSC Advances, 2022):

Legend:
LN229 = test: MTT cytotoxicity assay, LN229; format: cell-based, human; settings: 72 h incubation
Experimental: (§1) The cytotoxic activity of prepared RAPTA complexes (4a–4h) was evaluated by following the standard procedure of the MTT experiment against a series of glioblastoma cells (LN 229, T98, U87MG) in triplicate. In order to accomplish this study, cells were maintained for 72 h with complexes of various concentrations ranging from 2–160 μM, taking cisplatin as a typical positive control.[22]
(§2) RAPTA complexes were dissolved in 1% DMSO, and 0.9% NaCl aqueous solution was used to dissolve cisplatin. A cell suspension was prepared and the number of cells taken was 2.5 × 10^4 mL^−1. The cells were seeded in 96-well plates (200 μL per well) and allowed 80% confluence prior to treatment. The cells were formerly treated with various concentrations (2.5–160 μM) of complex 4a–h while the control group was treated with PBS […]. After the 72 hours of incubation, 0.5% MTT solution was added to each well (20 μL) and further incubated for 4 hours at […]. The formazan crystals that were formed were dissolved in 150 μL DMSO and then the OD was measured by a microplate reader at 540 nm. The % growth inhibition of the control and treated cells were calculated and represented as the growth inhibition percentage as explained below.% growth inhibition = 100 − [(AD × 100)/AB]where AD is the absorbance measured in wells containing the treated and control samples and AB is the measured absorbance for the wells with media and a vehicle that served as the blank. IC50 was calculated using Graphpad Prism (version 6.0) where % cell viability was plotted against drug concentration.

U87MG = test: MTT cytotoxicity assay, U87MG; format: cell-based, human; settings: 72 h incubation
Experimental: as §1, §2

Conductivity measurement = format: physicochemical; settings: 3 x 10^-5 M; for Conductivity (ΛM) 10% aq DMSO: in 10% aq DMSO; for Conductivity (ΛM) DMSO: in DMSO
Excerpt: concentrations gradually.
Origin Lab, version 8.5 was
equation (v) given below: […]
Conductivity measurement 7
complexes with DMSO and aqueous DMSO.
followed the previously described procedure. An orbital shaker was used to shake a known
Different ratios (0.5:1, 1:1,
saturated n-octanol to get the partition coefficient. The absorbance of aliquots of the aqueous

T98 = test: MTT cytotoxicity assay, T98; format: cell-based, human; settings: 72 h incubation
Experimental: as §1, §2

[1] = n-Octanol/water partition coefficient, shake-flask method
Experimental: n-Octanol–water partition coefficient (log P o/w)8
Using the previously reported shake flask approach, the log Po/w of the RAPTA complexes
amount of each complexes in water (pre-saturated with n-octanol). The solution was
centrifuged at 3000 rpm for 10 minutes to allow phase separation. Different ratios (0.5:1, 1:1,
and 2:1) of saturated solutions were shaken for 20 minutes on an orbital shaker with pre-
and octanol layers were measured with a UV-Vis spectrophotometer after adequate dilution.
The concentrations of the complexes in each layer were estimated using the corresponding
molar extinction coefficients, and the partition coefficient (log Po/w) values were computed

Solubility = settings: DMSO-10% DMEM medium (1:99 v/v, comparable to cell media)
EtBr-bound DNA (Ct-DNA) = system: EtBr-bound DNA (Ct-DNA); parameters: method as in PMID 34612310; settings: from literature ref 20; cited from earlier work
Ct-DNA = settings: comparison value, no reference given; cited from earlier work

Molecule | IC50 (LN229) [nM] | IC50 (U87MG) [nM] | Conductivity (ΛM) 10% aq DMSO (Conductivity measurement) [S cm2 mol-1] | Conductivity (ΛM) DMSO (Conductivity measurement) [S cm2 mol-1] | IC50 (T98) [nM] | log P (partition coefficient in n-octanol/water) [1] | solubility (Solubility) [mM] | KEtBr, EtBr binding constant (EtBr-bound DNA (Ct-DNA)) [M⁻¹] | KEtBr, DNA binding constant of the typical intercalator (Ct-DNA) [M⁻¹]
C1N2CN3CN1CP(C2)C3.CCCCCCCCCc1ccnc(-c2cc(CCCCCCCCC)ccn2)c1.Cc1ccc(C(C)C)cc1.F[P-](F)(F)(F)(F)F.F[P-](F)(F)(F)(F)F.[Ru+2] [4h, [(η^6-p-Cymene)Ru^II(κ^2-N,N-4,4′ dinonylbipyridine)(PTA)]·2PF6] | 1640 ± 30 | 1460 ± 30 | 77 | 71 | 1470 ± 30 | – | – | – | –
cis-[Pt(NH3)2Cl2] [Cisplatin, reference compound] | 1400 ± 50 | 1370 ± 40 | – | – | 1360 ± 50 | – | – | – | –
C1N2CN3CN1CP(C2)C3.Cc1ccc(C(C)C)cc1.F[P-](F)(F)(F)(F)F.F[P-](F)(F)(F)(F)F.[Ru+2].c1ccc(-c2ccccn2)nc1 [4e, [(η^6-p-Cymene)Ru^II(κ^2-N,N-bipyridine)(PTA)]·2PF6] | 1890 ± 60 | 1750 ± 30 | – | – | 1990 ± 40 | 1.4±0.08 | – | – | –
C1N2CN3CN1CP(C2)C3.Cc1ccc(C(C)C)cc1.F[P-](F)(F)(F)(F)F.F[P-](F)(F)(F)(F)F.[Ru+2].c1cnc2c(c1)ccc1cccnc12 [4b, [(η^6-p-Cymene)Ru^II(κ^2-N,N-phenanthroline)(PTA)]·2PF6] | 2190 ± 160 | 1910 ± 80 | 78 | 74 | 1910 ± 80 | – | – | – | –
C1N2CN3CN1CP(C2)C3.Cc1ccc(C(C)C)cc1.F[P-](F)(F)(F)(F)F.F[P-](F)(F)(F)(F)F.O=C(O)c1ccnc(-c2cc(C(=O)O)ccn2)c1.[Ru+2] [4f, [(η^6-p-Cymene)Ru^II(κ^2-N,N-4,4′ dicarboxylic acid bipyridine)(PTA)]·2PF6] | 1790 ± 20 | 1570 ± 20 | 77 | 75 | 2120 ± 30 | 0.33±0.03 | 17 | – | –
CC[n+]1c(-c2ccccc2)c2cc(N)ccc2c2ccc(N)cc21 [EtBr, ethidium bromide] | – | – | – | – | – | – | – | 1e+07 | 700000
[(η^6-p-Cymene)Ru^II(κ^2-N,N-4,4′ dimethylbipyridine)(PTA)]·2PF6 [4g] | 1690 ± 20 | 1700 ± 30 | 74 | 72 | 1700 ± 30 | – | – | – | –
C1N2CN3CN1CP(C2)C3.Cc1ccc(C(C)C)cc1.F[P-](F)(F)(F)(F)F.F[P-](F)(F)(F)(F)F.Oc1ccnc2c1ccc1c(O)ccnc12.[Ru+2] [4a, [(η^6-p-Cymene)Ru^II(κ^2-N,N-4,7dihydroxyphenanthroline)(PTA)]·2PF6] | 1800 ± 40 | 1690 ± 40 | 74 | 72 | 1950 ± 40 | – | – | – | –
